# Results: PMC6614837 (Nucleic Acids Research, 2019)
# “Also recorded” adds a separate entry of the source.
# Experiments:
# [1] = target: T1, P protein (Thermotoga maritima, UniProt Q9X1H4); assay: Binding hindrance of the 5′ RNA leader to the P protein (BLI); design: species or system T. maritima; settings: compound 100 μM, 5′ RNA leader 5 μM
# T1 construct: GST (cleaved yes); made in house; host or cells: E. coli BL21(DE3)pLysS
# T1 sequence (Q9X1H4 1-117): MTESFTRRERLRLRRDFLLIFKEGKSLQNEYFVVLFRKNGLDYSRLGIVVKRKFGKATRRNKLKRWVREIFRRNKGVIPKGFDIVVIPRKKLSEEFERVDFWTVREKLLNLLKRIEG
# Procedure: A 5′ RNA leader sequence with 10-bases 5′-GGAAAAAGAU-3′ was purchased from IDT and used at a concentration of 5 μM. This sequence is the same used to obtain the crystal structure of the RNase P holoenzyme ([19]). The His-tagged P protein was immobilized on Ni-NTA biosensors at 0.05 mg/ml (3.4 μM). […] The steps performed on the assay and their periods were: P protein immobilization (400 s), wash (100 s), baseline […] (1000 rpm), compound association (800 s), compound dissociation (200 s) (500 rpm), baseline (100 s), 5′ leader association (200 s), 5′ leader dissociation (200 s) (1000 rpm). The assay was performed at 30°C. The compounds were used at 100 μM throughout. All assay steps were performed in 20 mM HEPES pH 7.4, 100 mM ammonium acetate, 10 mM MgCl2, 5% DMSO.
# 5 ′ RNA leader. (A) Experimental design of 5′ RNA leader binding hindrance experiments. Figures B-F are based on the analysis region depicted in panel A, where association and dissociation of the 5′ RNA leader to the P protein (TmP) is measured over time. P protein at 3.5 µM was immobilized on Ni-NTA biosensors for 300 s, while compounds were assayed at 100 µM and the […]
# binding, in contrast with hematein (E) and purpurin (F).
# (1 picture or pasted object on this page, not shown here)
# [2] = system: P RNA; assay: Biolayer interferometry binding to immobilized P RNA; design: species or system T. maritima; settings: BLI, P RNA on SSA biosensors via biotinylated oligonucleotide
# Procedure: (§1) Real-time binding assays of the holoenzyme, P RNA, P protein, the substrate minihelix and the 5′-leader to individual compounds were performed by biolayer interferometry using an Octet RED96 system (ForteBio). For the holoenzyme or P RNA, a 5′ biotinylated RNA oligonucleotide with the sequence 5′biotin-CAUUCCAGACGAU was immobilized on Super Streptavidin (SSA) biosensors. Then, a modified P RNA or holoenzyme was added. The P RNA modification consisted of a sequence with part of the P1 stem sequence complementary to the biotinylated oligonucleotide (AUCGUCUGGA) (Supplementary Figure S23A). P1 is far from the active site or other regions involved in specific interactions (Supplementary Figure S23B) ([19]). The activity of this construct was indistinguishable from the wild-type holoenzyme. Alternatively, the holoenzyme was immobilized through the His-tagged P protein from T. maritima at 0.05 mg/ml (3.4 μM) on Ni-NTA biosensors. Control biosensors were used to subtract non-specific binding of compounds to the biosensor surface. All assay steps (immobilization, wash, baseline, association, and dissociation) were performed in 20 mM HEPES pH 7.4, 100 mM ammonium acetate, 10 mM MgCl2, 2.5% DMSO. The assays were performed on black bottom 96-well microplates (Greiner Bio-One 655209) in a total volume of 200 μl, at 30°C with orbital shaking at 1000 rpm. Experiments were controlled with the software Data Acquisition 8.2 (ForteBio, Inc.). Kinetic binding parameters were calculated using Data Analysis 8.2 (ForteBio, Inc.). After subtraction of reference biosensors, the binding curves were aligned to the X- and Y-axis and the association-dissociation inter-step curve in order to get a common baseline for the association and dissociation phases.
# Figure 3. The inhibitors purpurin and hematein bind to the holoenzyme. (A) Top. […] Bottom. […] (B) The relative affinities of the inhibitors for the P RNA or the holoenzyme differ. Binding sensorgrams obtained by biolayer interferometry (BLI). […]
# [3] = target: minihelix (Mh); assay: Biolayer interferometry binding to biotinylated minihelix substrate; settings: BLI
# Procedure: 3′-Biotinylated minihelix was purchased from Integrated DNA Technologies (IDT) (24-mer RNA sequence, 5′-[…]-3′-Biotin). The biotinylated minihelix was immobilized on Super Streptavidin (SSA) biosensors at a concentration of 10 μM. […] For the titration experiments, 10 μM of 3′-biotinylated minihelix was immobilized for 300 s on Super Streptavidin (SSA) biosensors, followed by a wash step of 100 s and association and dissociation steps of 200 s in the presence of 6 different concentrations of compound ranging from 500 to 15.6 μM. SSA biosensors with no minihelix were used to measure non-specific binding of compounds. All other parameters (buffer, instrument control, analysis) are as described above.
# Supplementary Figure 16. Binding assays monitor the interaction of compounds with the minihelix (Mh). Gentian violet and methylene blue bind in a dose-dependent relationship to the artificial minihelix substrate. […]
# interaction between the minihelix and (A) gentian violet (KD=8 µM ) and (B) methylene blue A 3′-biotinylated substrate minihelix at 10 µ M was immobilized on super streptavidin (SSA) biosensors for 300 s.
# Supplementary Figure 17. pre-tRNA displaces bound purpurin in a dose-response […]
# indicating a true competition between purpurin and pre-tRNA binding sites. […]
# [4] = system: P RNA; assay: Gel-based activity assay, bipartite pre-tRNA substrate, P RNA alone; type: biochemical, T. maritima; settings: 100 mM AmOAc, 10 mM MgCl2
# Procedure: For gel-based activity assays, reactions were prepared as described in the previous section (fluorescence activity assay), incubated for 1–15 min at 37–50°C, then loaded onto a denaturing 7 M urea–20% acrylamide gel in the case of the Mh substrate or 19% acrylamide (40% acrylamide/bisacrylamide 38.5:1.5) for the bipartite pre-tRNA substrate. The activity conditions for the gel reported in Figure 3A, to monitor the cleavage of the holoenzyme and P RNA, were under 100 mM AmOAc and 10 mM MgCl2. The gels (13 × 16 × 0.15 cm) were electrophoresed at 20 V/cm for 2–3 h. UV shadowing or ethidium bromide staining was used to visualize RNA cleavage. Detection of minihelix fluorescence was achieved without staining using a UV lamp with excitation at ∼254 nm.
# Figure 3. The inhibitors purpurin and hematein bind to the holoenzyme. (A) Top. […] Bottom. […] (B) The relative affinities of the inhibitors for the P RNA or the holoenzyme differ. Binding sensorgrams obtained by biolayer interferometry (BLI). P RNA or RNase P holoenzyme was immobilized on super streptavidin (SSA) biosensors through a 5′-biotinylated RNA oligonucleotide complementary to a region on the P1 stem of P RNA (see Materials and Methods). […] In contrast, gentian violet binds not only to P RNA but also to the Mh substrate (Supplementary Figure S16). (C) Molecular Dynamics (MD) simulations of RNase P protein in complex with the validated inhibitors. In each panel, semitransparent spheres represent the geometric center, over a 200 ns trajectory, of the corresponding tested compound. The 5′-leader (yellow) is shown for reference purposes only; it was not included in the simulation. Sphere color coding indicates the starting and final positions in blue and red, respectively. […] Purpurin's starting conformation corresponds to that observed in the crystal structure in complex with the P protein (PDB code: 6MAX. See Figure 5).
# [5] = target: T2, RNase P holoenzyme (Thermotoga maritima, UniProt Q9X1H4); assay: Displacement of pre-tRNA from the holoenzyme (BLI); type: binding, T. maritima; settings: holoenzyme on Ni-NTA biosensors, compound 0–400 μM, then pre-tRNA
# T2 construct: GST (cleaved yes); made in house; host or cells: E. coli BL21(DE3)pLysS
# T2 sequence (Q9X1H4 1-117): T1 sequence (Q9X1H4 1-117)
# Procedure: as §1
# Figure 4. Characterization of the inhibition of T. maritima RNase P by purpurin. (A) Best global fit for inhibition of RNase P in the presence of varying concentrations of fluorescent Mh substrate. […] Symbols represent the mean ± standard error as determined from three independent experiments at each concentration. See also Supplementary Figure S18. […] Binding sensorgrams obtained by biolayer interferometry (BLI). RNase P holoenzyme at 400 nM was immobilized on Ni-NTA. […] Binding sensorgrams obtained by biolayer interferometry (BLI). RNase P holoenzyme was immobilized on Ni-NTA biosensors, incubated with purpurin at varying concentrations (0–400 μM), and then the association and dissociation pre-tRNA was monitored. […] See also Supplementary Figure S17.
# [6] = system: RNase P from E. coli; design: method as in PMID 24097434; settings: cited from earlier work
# [7] = target: T3, RNase P holoenzyme from Thermotoga maritima (Thermotoga maritima, UniProt Q9X1H4); assay: Real-time fluorescence-based (FRET) RNase P activity assay with minihelix (Mh) substrate; type: biochemical
# T3 construct: made in house
# T3 sequence (Q9X1H4 1-117): T1 sequence (Q9X1H4 1-117)
# Procedure: The reconstitution of the RNase P holoenzyme was performed as described in ([40],[19]). This protocol produces a homogeneous and functional ribozyme that can be crystallized by mixing P RNA and P protein in a 1:1.1 molar ratio in 1× TH buffer (33 mM Tris–HCl, 66 mM HEPES, pH 7.4) and 400 mM ammonium acetate (AmOAc). The mixture was heated to 95°C for 2 min in a water bath, then chilled on ice for 2 min, after which MgCl2 was added to a final concentration of 100 mM. […] This higher concentration was used in all experiments described herein. The holoenzyme was further incubated at 50°C for 10 min and 37°C for 40 min. The final concentration of holoenzyme was 333 nM (35.6 μg/ml of P RNA and 4.7 μg/ml of P protein).
# The minihelix (Mh) substrate (Figure 1A) was adopted from a previously characterized RNase P substrate, pMini3bpUG ([32],[33]) and coupled to either Black Hole Quencher 1 (BHQ1) or Black Hole Quencher 2 (BHQ2) at the 5′-end and Alexa Fluor 488 at the 3′-end. This probe was purchased either from Sigma-Aldrich or Integrated DNA Technologies (IDT). A requested scale of […] yielded between 6.3 and 20 nmol (57.5 to 181 μg, enough for 1300–4000 reactions depending on the experimental substrate concentration). Before use, the minihelix was diluted from a 100 μM stock (dissolved in water) to 3.6 μM in activity buffer H (33 mM Tris–HCl, 66 mM HEPES, pH 7.4, 400 mM AmOAc and 100 mM MgCl2).
# Reactions were performed in a total volume of 20 μl. Pipetting was done by hand using multichannel pipettes. First, an 18 μl reaction mixture containing 16.5 μl of activity buffer (H for Mh or L supplemented with 10% PEG 200 for bipartite pre-tRNA) and 270 nM (Mh) or 135 nM (bipartite pre-tRNA) (1.5 or 0.7 μl of the 3.6 μM stock) of the fluorescent substrate probe was pre-incubated on ice for at least 5 m in a black polystyrene 384-well microtiter microplate with a flat transparent bottom (Corning ref 3540). The holoenzyme was then added at a final concentration of 33 nM (2 μl of a 333 nM stock) in 1× TH buffer and mixed. Kinetic activity was monitored in a Synergy MX Multimode Detector (BioTek) at 37°C with rapid agitation. At least 20 readings were taken per well every 15 s. The probe was excited at 485 nm, and its emission was monitored at 535 nm with an integration time of 1 s. From the plots of relative fluorescent units (RFU) versus time, linear regression was used to determine the slopes in the linear portion of the curves, using at least 12 data points to obtain initial velocities. Non-linear fitting to obtain the Michaelis–Menten parameters was performed using GraphPad Prism® 6.01 software.
# Supplementary Figure 3. FRET assays of RNase P with the fluorescent substrate are reproducible. (A) Representative plots of kinetic assays performed in a single run. The standard assay (SA), (+), was performed at 37° C in a total volume of 20 µL and contained RNase P holoenzyme at 33 nM, substrate minihelix (Mh) at 270 nM, 10% DMSO and activity buffer (AB).
# The negative control assay (-) contained 100 mM CaCl2 in place of MgCl2. Ten to twelve wells were monitored simultaneously in a typical assay. (B) Zoomed view of the linear region of the kinetic assays shown in panel A. Fluorescence readings were performed every 15-20 seconds.
# Linear regression calculations were done using the GraphPad Prism 7 software. (C) The coefficient Z’-factor (1) was used as an indicator of reproducibility and was calculated based on the relative fluorescence units (RFU) in the plateau phase (taken at 20 minutes). The Z’-factor has a […]
# presented in this work were either measured in triplicate or confirmed in subsequent assays. (D) […]
# assay is robust. The IC50 values reported in Figures 1C and 2 were calculated according to this kinetic parameter. There is a negative drift in fluorescence in the case of the negative control.
# However, it should be noted that the mean value of it (-279) is much smaller than the signal of the […]
# positive control (3397). […]
# [8] = target: T4, RNase P protein (TmP, P protein) (Thermotoga maritima, UniProt Q9X1H4 1-117); assay: BLI; settings: BLI (Octet RED96): 20 mM HEPES pH 7.4, 100 mM ammonium acetate, 10 mM MgCl2, 2.5-5% DMSO, 30 C; P protein:P RNA in 33 mM Tris, 66.6 mM HEPES, 200 mM ammonium …
# T4 sequence: T1 sequence (Q9X1H4 1-117)
compound,measurement,setting,value
"CN(C)c1ccc([C+](c2ccc(N(C)C)cc2)c2ccc(N(C)C)cc2)cc1.[Cl-] [Gentian violet, tris(4-(dimethylamino)phenyl)methylium chloride, reference compound]",Hindrance of 5′ RNA leader binding to the P protein,[1],did not interfere with RNA leader
same,Hindrance of 5′ RNA leader binding to the P protein,[1]; listed as gentian violet,do not impede the leader binding
same,Binding to P RNA,[2],binds more strongly to it
same,Kd,[3]; 3′-biotinylated minihelix 10 μM on SSA biosensors,8 µM
same,Binding to the minihelix substrate,[3]; initial screening at 1 mM and titration,binding signal; also recorded: binds to the biotinylated minihelix substrate in the micromolar range
same,Inhibition of the P RNA reaction,[4],inhibits the reaction via P RNA
same,Dose–response displacement of pre-tRNA,[5],No
"Mh: 24-nucleotide minihelix RNase P model substrate with 5′ Black Hole Quencher and 3′ Alexa Fluor 488 (GAUCUGAAUGCGGAAACGCGCCAC; 5' BHQ quencher, 3' Alexa Fluor 488, further chemistry not given here)",kobs (previously reported),[6],0.86 min⁻¹
same,Kd,[6]; read-out: KD (previously reported),2800 nM
same,kcat,[7]; Michaelis–Menten fit,6.7 min⁻¹
same,Km,"[7]; holoenzyme 11 nM, Michaelis-Menten fit",1300 nM
P RNA,Kd,[8],0.5 nM
